# According to patent US20040048834A1, “Antitumoral compounds” (priority 2000, published 2004):
# pIC50: −log10 of the molar value. Where two headings read alike, the source gives them in different places.
# Columns and labels:
# Assay type in all cases: cell-based
# PC-3 = assay: Cytotoxicity MTS, solid tumors, Prostate PC-3; conditions: 4-Parameter Curve Fit, NA = not active
# CHSA = assay: Cytotoxicity MTS, solid tumors, Chondrosarcoma CHSA; conditions: 4-Parameter Curve Fit, NA = not active
# PANC-1 = assay: Cytotoxicity MTS, solid tumors, Pancreas PANC-1; conditions: 4-Parameter Curve Fit, NA = not active
# 5637 = assay: Cytotoxicity MTS, solid tumors, Bladder 5637; conditions: 4-Parameter Curve Fit, NA = not active
# DU-145 = assay: Cytotoxicity MTS, solid tumors, Prostate DU-145; conditions: 4-Parameter Curve Fit, NA = not active
# HT-29 = assay: Cytotoxicity MTS, solid tumors, Colon HT-29; conditions: 4-Parameter Curve Fit, NA = not active
# Mel-28 = assay: Cytotoxicity MTS, solid tumors, Melanoma Mel-28; conditions: 4-Parameter Curve Fit, NA = not active
# FADU = assay: Cytotoxicity MTS, solid tumors, Pharynx FADU; conditions: 4-Parameter Curve Fit, NA = not active
# LNCAP = assay: Cytotoxicity MTS, solid tumors, Prostate LNCAP; conditions: 4-Parameter Curve Fit, NA = not active
# A549 [1] = assay: Cytotoxicity MTS, solid tumors, NSCL A549; conditions: 4-Parameter Curve Fit, NA = not active
# SW 694 = assay: Cytotoxicity MTS, solid tumors, Fibrosarcoma SW 694; conditions: 4-Parameter Curve Fit, NA = not active
# P388 = assay: Cytotoxicity of spisulosine analogs, P388 (after Berjeron et al); conditions: methodology after Berjeron et al, NA=not active, read-out: Cytotoxicity IC50 P388
# MEL28 = assay: Cytotoxicity of spisulosine analogs, MEL28 (after Berjeron et al); conditions: methodology after Berjeron et al, NA=not active, read-out: Cytotoxicity IC50 MEL28
# HT29 = assay: Cytotoxicity of spisulosine analogs, HT29 (after Berjeron et al); conditions: methodology after Berjeron et al, NA=not active, read-out: Cytotoxicity IC50 HT29
# DU145 = assay: Cytotoxicity of spisulosine analogs, DU145 (after Berjeron et al); conditions: methodology after Berjeron et al, NA=not active, read-out: Cytotoxicity IC50 DU145
# A549 [2] = assay: Cytotoxicity of spisulosine analogs, A549 (after Berjeron et al); conditions: methodology after Berjeron et al, NA=not active, read-out: Cytotoxicity IC50 A549
# RAMOS = assay: Cytotoxicity MTS, leukemias/lymphomas, RAMOS; conditions: 4-Parameter Curve Fit, NA = not active, read-out: Cytotoxicity IC50 Lymphoma (Burkitts B cell) RAMOS
# Hut 78 = assay: Cytotoxicity MTS, leukemias/lymphomas, Hut 78; conditions: 4-Parameter Curve Fit, NA = not active, read-out: Cytotoxicity IC50 Lymphoma (Cutaneous T cell) Hut 78
# U-937 = assay: Cytotoxicity MTS, leukemias/lymphomas, U-937; conditions: 4-Parameter Curve Fit, NA = not active, read-out: Cytotoxicity IC50 Lymphoma (Histiocytic) U-937
# HL-60 = assay: Cytotoxicity MTS, leukemias/lymphomas, HL-60; conditions: read-out: Cytotoxicity IC50 AML (acute promyelocytic leukemia) HL-60, 4-Parameter Curve Fit, NA = not active, read-out: Cytotoxicity IC50 ALL (Promyelocytic leukemia) HL-60
# P3HR1 = assay: Cytotoxicity MTS, leukemias/lymphomas, P3HR1; conditions: 4-Parameter Curve Fit, NA = not active, read-out: Cytotoxicity IC50 Lymphoma (Burkitts ascites) P3HR1
# ARH-77 = assay: Cytotoxicity MTS, leukemias/lymphomas, ARH-77; conditions: 4-Parameter Curve Fit, NA = not active, read-out: Cytotoxicity IC50 Leukemia (Plasma cell) ARH-77
# K562 = assay: Cytotoxicity MTS, leukemias/lymphomas, K562; conditions: 4-Parameter Curve Fit, NA = not active, read-out: Cytotoxicity IC50 CML (Chronic myelogenous) K562
# H9 = assay: Cytotoxicity MTS, leukemias/lymphomas, H9; conditions: 4-Parameter Curve Fit, NA = not active, read-out: Cytotoxicity IC50 Lymphoma (T cell) H9
# OSA-FH = assay: Cytotoxicity MTS, solid tumors, Osteosarcoma OSA-FH; conditions: 4-Parameter Curve Fit, NA = not active
# Y-79 = assay: Cytotoxicity MTS, solid tumors, Retinoblastoma Y-79; conditions: 4-Parameter Curve Fit, NA = not active
# NCI-H187 = assay: Cytotoxicity MTS, solid tumors, SCL NCI-H187; conditions: 4-Parameter Curve Fit, NA = not active
# 786-O = assay: Cytotoxicity MTS, solid tumors, Renal 786-O; conditions: 4-Parameter Curve Fit, NA = not active
# MX-1 = assay: Cytotoxicity MTS, solid tumors, Breast MX-1; conditions: 4-Parameter Curve Fit, NA = not active
compound,measurement,setting,value
CCCCCCCCCCCCCC[C@@H](O)[C@H](C)N [drawing 115],pIC50,PC-3,6.42
same,pIC50,CHSA,5.02
same,pIC50,PANC-1,7.06
same,pIC50,5637,7.44
same,pIC50,DU-145,6.70
same,pIC50,HT-29,6.58
same,pIC50,Mel-28,4.99
same,pIC50,FADU,7.11
same,pIC50,LNCAP,7.15
same,pIC50,A549 [1],5.00
same,pIC50,SW 694,5.00
CCCCCCCCCCCCCCCC(=O)[C@H](C)N [drawing 102],pIC50,P388; P388,7.50
same,pIC50,MEL28; MEL28,6.81
same,pIC50,HT29; HT29,7.50
same,pIC50,DU145; DU145,7.50
same,pIC50,A549 [2]; A549,6.81
CCCCCCCCCCCCCC[C@@H](O)[C@H](C)N [drawing 101],pIC50,P388; P388,6.79
same,pIC50,MEL28; MEL28,6.49
same,pIC50,HT29; HT29,6.79
same,pIC50,DU145; DU145,6.79
same,pIC50,A549 [2]; A549,6.79
"CCCCCCCCCCCCCCCCC[C@@H](O)[C@H](C)N [drawing 38, (2S,3R)-2-Amino-3-eicosanol]",pIC50,"P388; Mus musculus, P388, P388",7.50
same,pIC50,"MEL28; Homo sapiens, SK-MEL-28, MEL28",6.50
same,pIC50,HT29; HT29,7.50
same,pIC50,"DU145; Homo sapiens, DU-145, DU145",7.50
same,pIC50,A549 [2]; A549,7.50
CCCCCCCCCCCCCCCC(O)C(C)N (centres unmarked),pIC50,RAMOS,5.67
same,pIC50,Hut 78,5.67
same,pIC50,U-937,6.01
same,pIC50,HL-60,6.37
same,pIC50,P3HR1,5.47
same,pIC50,ARH-77,6.17
same,pIC50,K562,6.11
same,pIC50,H9,5.81
"CCCCCCCCCCCCCCCCCC[C@@H](O)[C@H](C)N [drawing 52, (2S,3R)-2-Amino-3-heneicosanol]",pIC50,"P388; Mus musculus, P388, P388",6.82
same,pIC50,"MEL28; Homo sapiens, SK-MEL-28, MEL28",6.52
same,pIC50,HT29; HT29,6.52
same,pIC50,"DU145; Homo sapiens, DU-145, DU145",6.52
same,pIC50,A549 [2]; A549,6.52
CCCCCCCCCCCCCCCCCC(=O)[C@H](C)N [drawing 120],pIC50,FADU,4.84
same,pIC50,A549 [1],4.70
CCCCCCCCCCCCCCC[C@@H](O)[C@@H](N)CF [drawing 133],pIC50,HL-60,5.89
CCCCCCCCCCCCCCC[C@@H](O)[C@@H](N)CC [drawing 116],pIC50,OSA-FH,5.07
same,pIC50,PC-3,4.99
same,pIC50,CHSA,5.05
same,pIC50,PANC-1,6.73
same,pIC50,Y-79,5.02
same,pIC50,5637,5.11
same,pIC50,DU-145,7.12
same,pIC50,HT-29,5.04
same,pIC50,Mel-28,5.03
same,pIC50,FADU,6.65
same,pIC50,LNCAP,5.20
same,pIC50,NCI-H187,5.14
same,pIC50,A549 [1],4.99
same,pIC50,SW 694,5.12
CCCCCCCCCCCCCCCCCC(=O)[C@H](C)N [drawing 105],pIC50,P388; P388,6.84
same,pIC50,MEL28; MEL28,6.54
same,pIC50,HT29; HT29,6.84
same,pIC50,DU145; DU145,6.84
same,pIC50,A549 [2]; A549,6.84
CCCCCCCCCCCCCCCC[C@@H](O)[C@H](C)N [drawing 113],pIC50,OSA-FH,6.74
same,pIC50,PC-3,7.07
same,pIC50,CHSA,7.74
same,pIC50,PANC-1,6.78
same,pIC50,Y-79,5.33
same,pIC50,5637,7.33
same,pIC50,DU-145,7.13
same,pIC50,HT-29,7.19
same,pIC50,Mel-28,5.14
same,pIC50,FADU,7.99
same,pIC50,LNCAP,7.35
same,pIC50,NCI-H187,6.79
same,pIC50,A549 [1],7.46
same,pIC50,SW 694,5.19
CCCCCCCCCCCCCCCC(=O)[C@@H](N)CC [drawing 121],pIC50,786-O,4.22
same,pIC50,5637,5.80
same,pIC50,MX-1,5.76
same,pIC50,FADU,5.52
"CCCCCCCCCCCCCCC[C@H](Cl)[C@H](C)N [(2S,3S)-2-Amino-3-chloro-octadecane]",pIC50,"P388; Mus musculus, P388, P388",6.48
same,pIC50,"MEL28; Homo sapiens, SK-MEL-28, MEL28",6.48
same,pIC50,"HT29; Homo sapiens, HT-29, HT29",6.48
same,pIC50,"DU145; Homo sapiens, DU-145, DU145",6.48
same,pIC50,"A549 [2]; Homo sapiens, A549, A549",6.48
"CCCCCCCCCCCC[C@@H](O)[C@H](C)N [(2S,3R)-2-Amino-3-pentadecanol]",pIC50,"P388; Mus musculus, P388, P388",6.39
same,pIC50,"MEL28; Homo sapiens, SK-MEL-28, MEL28",5.69
same,pIC50,"HT29; Homo sapiens, HT-29, HT29",6.39
same,pIC50,"DU145; Homo sapiens, DU-145, DU145",6.39
same,pIC50,"A549 [2]; Homo sapiens, A549, A549",6.39
